# Biological target: T1, AT1 Y292A receptor (Rattus norvegicus, UniProt P25095, Y292A)
# T1 construct: expressed in transfected cells; host or cells: COS7
# T1 sequence (P25095 1-359 Y292A): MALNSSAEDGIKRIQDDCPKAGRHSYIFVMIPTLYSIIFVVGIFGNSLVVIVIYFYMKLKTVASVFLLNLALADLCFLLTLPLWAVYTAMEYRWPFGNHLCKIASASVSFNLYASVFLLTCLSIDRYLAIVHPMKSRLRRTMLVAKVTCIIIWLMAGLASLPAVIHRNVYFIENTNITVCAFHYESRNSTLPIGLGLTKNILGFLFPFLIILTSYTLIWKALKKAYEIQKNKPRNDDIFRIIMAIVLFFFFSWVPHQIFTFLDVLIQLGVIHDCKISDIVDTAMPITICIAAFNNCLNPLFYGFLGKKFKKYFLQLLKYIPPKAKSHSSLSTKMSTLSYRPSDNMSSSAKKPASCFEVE
# Experiment: Competition binding study, 125I-[Sar1,Ile8]Ang II, AT1 Y292A receptor
# Details: competition with 125I-[Sar1,Ile8]Ang II, n = 3, mean ± standard error, read-out: Binding affinity (Kd)
# Text: We mutated four amino acids in transmembrane (TM) III, VI, and VII in the AT1 receptor (L112A, Q257A, Y292A, and N295A receptors). We determined the mutation sites of the AT1 receptor according to ARB, which produced olmesartan derivatives with different interactions and functions toward the AT1 receptor, as previously reported by Zhang et al., since the additional 4-hydroxybenzyl groups of R781253 and R794847 were predicted to extend to a sub-pocket on the bottom of the AT1 receptor ligand-binding pocket consisting of Leu^112 and Gln^257. In addition, since the biased ligand TRV027 induced changes near the NPxxY motif in TM domain 7 that are related to receptor activation, Tyr^292 and Asn^295 in the AT1 receptor were mutated.
# The synthetic rat AT1 receptor gene, which was cloned in the shuttle expression vector pMT-2, was used for expression and mutagenesis, as described previously. COS7 cells (No. CRL-1651, ATCC, Manassas, VA, USA) were cultured in 10% fetal bovine serum (FBS) and penicillin- and streptomycin-supplemented Dulbecco’s modified Eagle’s essential medium (PS-DMEM) in 5% CO2 at 37 °C. In the experiments, cells were grown without a cell-growth supplement. To express the AT1 receptor protein, 10 µg of purified plasmid DNA per 10^7 cells was used in the transfection. Wild-type and mutated AT1 receptors were transiently transfected into cells using Lipofectamine 2000 liposomal reagent (Roche Applied Science, Penzberg, Germany). Cells were plated and grown and were 70–90% confluent at the time of transfection. We incubated plasmid DNA (10 µg)–lipid (10 µL) complexes for 5 min at room temperature and added and incubated the complexes with cells for 24 h. We then analyzed the parameters in transfected cells. Cell viability was >95% according to trypan blue exclusion analysis in the control experiments. Transfected cells that had been cultured for 48–72 h were harvested. Cell membranes were prepared using the nitrogen Parr bomb disruption or freeze–thaw methods.
# The Kd (nM) values of receptor binding were determined with ^125I-[Sar^1, Ile^8]AngII-binding experiments under equilibrium conditions. Binding kinetics were determined following the methods described in the literature. We carried out binding by using ^125I-[Sar^1, Ile^8] AngII (2200 Ci/mmol) and an increasing concentration (10^−11–10^−5 M) of each unlabeled compound. Nonspecific binding of ^125I-[Sar^1, Ile^8] Ang II was determined in the presence of a high concentration (10^−6 M) of unlabeled [Sar^1, Ile^8]. Next, the incubation mixture was separated by vacuum filtration through Whatman GF/C glass filters (Disposable Filter Funnels Grade GF/C, GE Healthcare), and presoaked with 0.1% polyethylenimine. The filter was washed with 3 mL of ice-cold stop buffer (25 mM Tris–HCl, pH 7.4, 1 mM MgCl2). The radioactivity trapped on the filters was quantified using an automatic γ-counter. The percentage (%) of specific binding of ^125I-[Sar^1, Ile^8]Ang II was calculated using the following formula: 100 × (% total binding of ^125I-[Sar^1, Ile^8]Ang II—nonspecific binding of ^125I-[Sar^1, Ile^8]Ang II)/(% total binding of ^125I-[Sar^1, Ile^8]Ang II).
row,Kd [nM],SMILES
1,47 ± 15,"CCCc1nc(C(C)(C)O)c(C(=O)O)n1Cc1ccc(-c2ccccc2-c2nnn[nH]2)cc1 [Olmesartan, olmesartan]"
2,6.3 ± 3.8,CCCc1nc(C(C)(C)O)c(C(N)=O)n1Cc1ccc(-c2ccccc2-c2nnn[nH]2)cc1 [R239470]
3,95 ± 7,CCCc1nc(C(C)(C)O)c(C(=O)O)n1Cc1ccc(-c2cc(Cc3ccc(O)cc3)ccc2-c2nnn[nH]2)cc1 [R781253]
4,30 ± 8,CCCc1nc(C(C)(C)O)c(C(N)=O)n1Cc1ccc(-c2cc(Cc3ccc(O)cc3)ccc2-c2nnn[nH]2)cc1 [R794847]

# Source: PMC10216478, “Development of a Non-Peptide Angiotensin II Type 1 Receptor Ligand by Structural Modification of Olmesartan as a Biased Agonist” (Biomedicines, 2023)
